Patent publication US4476120A, “Thiolic derivatives of erythromycin having therapeutic activity, and pharmaceutical compositions containing them” (Sigma Tau Indistrie Farmaceutiche Riunites, p.A, priority 1982, dated 1984)
≈ marks a conversion by molar mass, not a printed value.

Experiments:
S. heidelberg SS 18 = type: cell-based; conditions: Brain Heart Infusion, estolate and RV11-RV15 previously hydrolized, unit assumed
B. subtilis ATCC 6633 = type: cell-based; conditions: Brain Heart Infusion, estolate and RV11-RV15 previously hydrolized, unit assumed
Acute toxicity = type: in vivo; conditions: mortality 10 days after treatment, mice
Procedure: The acute toxicity was assessed in Swiss white mice by oral and intravenous route. The LD50 values have been calculated by the methods of Probits, starting from the mortality recorded 10 days after the treatment.

D. pneumoniae SS 23 = type: cell-based; conditions: Brain Heart Infusion, estolate and RV11-RV15 previously hydrolized, unit assumed
E. coli SS 05 = type: cell-based; conditions: Brain Heart Infusion, estolate and RV11-RV15 previously hydrolized, unit assumed
H. influentiae SS 02 = type: cell-based; conditions: Brain Heart Infusion, estolate and RV11-RV15 previously hydrolized, unit assumed
Cl. tetani SS 17 = type: cell-based; conditions: Brain Heart Infusion, estolate and RV11-RV15 previously hydrolized, unit assumed
E. cloacae SS 07 = type: cell-based; conditions: Brain Heart Infusion, estolate and RV11-RV15 previously hydrolized, unit assumed
B. anthranis SS 08 = type: cell-based; conditions: Brain Heart Infusion, estolate and RV11-RV15 previously hydrolized, unit assumed
S. infantis SS 08 = type: cell-based; conditions: Brain Heart Infusion, estolate and RV11-RV15 previously hydrolized, unit assumed
Staph. aureus SS 10 = type: cell-based; conditions: Brain Heart Infusion, estolate and RV11-RV15 previously hydrolized, unit assumed
E. coli SS 06 = type: cell-based; conditions: Brain Heart Infusion, estolate and RV11-RV15 previously hydrolized, unit assumed
B. subtilis SS 127 = type: cell-based; conditions: Brain Heart Infusion, estolate and RV11-RV15 previously hydrolized, unit assumed
[1] = Mucolytic activity: obstruction of the bronchial tract after SO2 inhalation; type: in vivo, Sprague Dawley male rats; conditions: i.m., 250 mg/kg; SO2, 15 days
Staph. aureus SS 09 = type: cell-based; conditions: Brain Heart Infusion, estolate and RV11-RV15 previously hydrolized, unit assumed
Pr. vulgaris SS 10 = type: cell-based; conditions: Brain Heart Infusion, estolate and RV11-RV15 previously hydrolized, unit assumed
E. coli SS 04 = type: cell-based; conditions: Brain Heart Infusion, estolate and RV11-RV15 previously hydrolized, unit assumed
[2] = Histological examination of bronchi after SO2 inhalation; type: in vivo, Sprague Dawley male rats; conditions: i.m., 250 mg/kg; for histological appearance of non obstructed bronchi: free non obstructed
Strept. faecalis SS 19 = type: cell-based; conditions: Brain Heart Infusion, estolate and RV11-RV15 previously hydrolized, unit assumed
B. cereus ATCC 11778 = type: cell-based; conditions: Brain Heart Infusion, estolate and RV11-RV15 previously hydrolized, unit assumed
Br. abortus SS 7 = type: cell-based; conditions: Brain Heart Infusion, estolate and RV11-RV15 previously hydrolized, unit assumed
Ps. aeruginosa SS 10 = type: cell-based; conditions: Brain Heart Infusion, estolate and RV11-RV15 previously hydrolized, unit assumed
Staph. aureus SS 07 [3] = test: Experimental infection induced by Staph. aureus SS 07; type: in vivo, Swiss white mice; conditions: Staph. aureus SS 07, mg/kg of erythromycin, survival after 7 days; for ED50 (reliability limits): 10080 min
Outline: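 Swiss mice of 20 g infected parenterally with lethal amounts of Staph. aureus SS 07 or D. pneumoniae SS 23. Antibiotics were given at infection and again 6 and 24 h later. ED50 was derived from survival at 7 days.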

Kl. aerogenes SS 71 = type: cell-based; conditions: Brain Heart Infusion, estolate and RV11-RV15 previously hydrolized, unit assumed
E. aerogenes SS 011 = type: cell-based; conditions: Brain Heart Infusion, estolate and RV11-RV15 previously hydrolized, unit assumed
H. pertussis SS 03 = type: cell-based; conditions: Brain Heart Infusion, estolate and RV11-RV15 previously hydrolized, unit assumed
[4] = test system: Strept. haemolyticus SS 17; type: cell-based; conditions: Brain Heart Infusion, estolate and RV11-RV15 previously hydrolized, unit assumed
Br. melitensis SS 19 = type: cell-based; conditions: unit assumed
Staph. aureus SS 08 = type: cell-based; conditions: Brain Heart Infusion, estolate and RV11-RV15 previously hydrolized, unit assumed
Pr. mirabilis SS 09 = type: cell-based; conditions: Brain Heart Infusion, estolate and RV11-RV15 previously hydrolized, unit assumed
B. anthranis SS 09 = type: cell-based; conditions: B. anthranis SS 09 (14 bis); Brain Heart Infusion; estolate and RV11-RV15 previously hydrolized; unit assumed
Staph. albus SS 04 = type: cell-based; conditions: Brain Heart Infusion, estolate and RV11-RV15 previously hydrolized, unit assumed
Staph. albus SS 03 = type: cell-based; conditions: Brain Heart Infusion, estolate and RV11-RV15 previously hydrolized, unit assumed
Kl. pneumoniae SS 04 = type: cell-based; conditions: Brain Heart Infusion, estolate and RV11-RV15 previously hydrolized, unit assumed
From the text: (§1) In the following table I the MIC/ml values are indicated corresponding to the lowest concentration capable of inducing a complete inhibition of the bacterial development.

H. tubercolosis SS 03 = type: cell-based; conditions: Brain Heart Infusion, estolate and RV11-RV15 previously hydrolized, unit assumed
From the text: as §1

S. lutea ATCC 9341 = type: cell-based; conditions: Brain Heart Infusion, estolate and RV11-RV15 previously hydrolized, unit assumed
Staph. aureus SS 07 [5] = type: cell-based; conditions: Brain Heart Infusion, estolate and RV11-RV15 previously hydrolized, unit assumed
Citrobacter SS 05 = type: cell-based; conditions: Brain Heart Infusion, estolate and RV11-RV15 previously hydrolized, unit assumed
E. coli SS 07 = type: cell-based; conditions: Brain Heart Infusion, estolate and RV11-RV15 previously hydrolized, unit assumed
Citrobacter SS 09 = type: cell-based; conditions: Brain Heart Infusion, estolate and RV11-RV15 previously hydrolized, unit assumed
[6] = test system: Strept. haemolyticus SS 18; type: cell-based; conditions: Brain Heart Infusion, estolate and RV11-RV15 previously hydrolized, unit assumed
C. diphtheriae SS 19 = type: cell-based; conditions: Brain Heart Infusion, estolate and RV11-RV15 previously hydrolized, unit assumed

CC[C@H]1OC(=O)[C@H](C)[C@@H](O[C@H]2C[C@@](C)(OC)[C@@H](O)[C@H](C)O2)[C@H](C)[C@@H](O[C@@H]2O[C@H](C)C[C@H](N(C)C)[C@H]2O)[C@](C)(O)C[C@@H](C)C(=O)[C@H](C)[C@@H](O)[C@]1(C)O [RV01, erythromycin alpha-mercaptosuccinate]
MIC (S. heidelberg SS 18): 100 µg/mL (≈ 136 µM) | MIC (B. subtilis ATCC 6633): 0.01 µg/mL (≈ 0.0136 µM) | LD50 (reliability limits) (Acute toxicity; i.v., 14400 min): 458.49 (518.06-405.77) mg.kg | LD50 (reliability limits) (Acute toxicity; os): > 3000 mg·kg | MIC (D. pneumoniae SS 23): 0.05 µg/mL (≈ 0.0681 µM) | MIC (E. coli SS 05): 50 µg/mL (≈ 68.1 µM) | MIC (H. influentiae SS 02): 1.5 µg/mL (≈ 2.04 µM) | MIC (Cl. tetani SS 17): 0.2 µg/mL (≈ 0.273 µM) | MIC (E. cloacae SS 07): > 200 µg/mL | MIC (B. anthranis SS 08): 0.4 µg/mL (≈ 0.545 µM) | MIC (S. infantis SS 08): 100 µg/mL (≈ 136 µM) | MIC (Staph. aureus SS 10): 0.05 µg/mL (≈ 0.0681 µM) | MIC (E. coli SS 06): 100 µg/mL (≈ 136 µM) | MIC (B. subtilis SS 127): 0.01 µg/mL (≈ 0.0136 µM) | Partial obstruction (% incidence) [1]: 13.33% | Total obstruction, compact plug (% incidence) [1]: 26.66% | Total obstruction, nodular mass (% incidence) [1]: 6.66% | Total obstruction, pimply mass (% incidence) [1]: 13.33% | MIC (Staph. aureus SS 09): 0.1 µg/mL (≈ 0.136 µM) | MIC (Pr. vulgaris SS 10): > 200 µg/mL | MIC (E. coli SS 04): 50 µg/mL (≈ 68.1 µM) | histological appearance of non obstructed bronchi [2]: practically normal appearance | histological appearance of obstructed bronchial tract [2]: an appearance like that of the control animals | MIC (Strept. faecalis SS 19): 0.1 µg/mL (≈ 0.136 µM) | MIC (B. cereus ATCC 11778): 0.4 µg/mL (≈ 0.545 µM) | MIC (Br. abortus SS 7): 6 µg/mL (≈ 8.18 µM) | MIC (Ps. aeruginosa SS 10): 200 µg/mL (≈ 273 µM) | ED50 (Staph. aureus SS 07 [3]; Staphylococcus aureus, SS07, in Mus musculus, sc, 168 h, s.c., read-out: ED50 (reliability limits)): 0.95 mg/kg | ED50 (reliability limits) (Staph. aureus SS 07 [3]; os): 2.36 (2.68-2.08) mg/kg | MIC (Kl. aerogenes SS 71): 100 µg/mL (≈ 136 µM) | MIC (E. aerogenes SS 011): 50 µg/mL (≈ 68.1 µM) | MIC (H. pertussis SS 03): 0.4 µg/mL (≈ 0.545 µM) | MIC [4]: 3 µg/mL (≈ 4.09 µM) | MIC (Br. melitensis SS 19): 3 µg/mL (≈ 4.09 µM) | MIC (Staph. aureus SS 08): 0.025 µg/mL (≈ 0.0341 µM) | MIC (Pr. mirabilis SS 09): > 200 µg/mL | MIC (B. anthranis SS 09): 0.4 µg/mL (≈ 0.545 µM) | MIC (Staph. albus SS 04): 0.05 µg/mL (≈ 0.0681 µM) | MIC (Staph. albus SS 03): 0.1 µg/mL (≈ 0.136 µM) | MIC (Kl. pneumoniae SS 04): 100 µg/mL (≈ 136 µM) | MIC (H. tubercolosis SS 03): 50 µg/mL (≈ 68.1 µM) | MIC (S. lutea ATCC 9341): 0.01 µg/mL (≈ 0.0136 µM) | MIC (Staph. aureus SS 07 [5]): 0.05 µg/mL (≈ 0.0681 µM) | MIC (Citrobacter SS 05): > 200 µg/mL | MIC (E. coli SS 07): 25 µg/mL (≈ 34.1 µM) | MIC (Citrobacter SS 09): > 200 µg/mL | MIC [6]: 1.5 µg/mL (≈ 2.04 µM) | MIC (C. diphtheriae SS 19): 0.025 µg/mL (≈ 0.0341 µM)

CC[C@H]1OC(=O)[C@H](C)[C@@H](O[C@H]2C[C@@](C)(OC)[C@@H](O)[C@H](C)O2)[C@H](C)[C@@H](O[C@@H]2O[C@H](C)C[C@H](N(C)C)[C@H]2O)[C@](C)(O)C[C@@H](C)C(=O)[C@H](C)[C@@H](O)[C@]1(C)O [RV03, erythromycyn-thiazolidin-carboxylate]
MIC (S. heidelberg SS 18): 100 µg/mL (≈ 136 µM) | MIC (B. subtilis ATCC 6633): 0.05 µg/mL (≈ 0.0681 µM) | LD50 (reliability limits) (Acute toxicity; i.v., 14400 min): 491.96 (552.31-438.20) mg.kg | LD50 (reliability limits) (Acute toxicity; os): > 3000 mg·kg | MIC (D. pneumoniae SS 23): 0.025 µg/mL (≈ 0.0341 µM) | MIC (E. coli SS 05): 50 µg/mL (≈ 68.1 µM) | MIC (H. influentiae SS 02): 1.5 µg/mL (≈ 2.04 µM) | MIC (Cl. tetani SS 17): 0.4 µg/mL (≈ 0.545 µM) | MIC (E. cloacae SS 07): > 200 µg/mL | MIC (B. anthranis SS 08): 0.2 µg/mL (≈ 0.273 µM) | MIC (S. infantis SS 08): 200 µg/mL (≈ 273 µM) | MIC (Staph. aureus SS 10): 0.1 µg/mL (≈ 0.136 µM) | MIC (E. coli SS 06): 50 µg/mL (≈ 68.1 µM) | MIC (B. subtilis SS 127): 0.025 µg/mL (≈ 0.0341 µM) | Partial obstruction (% incidence) [1]: 6.66% | Total obstruction, compact plug (% incidence) [1]: 26.66% | Total obstruction, nodular mass (% incidence) [1]: 20% | Total obstruction, pimply mass (% incidence) [1]: 6.66% | MIC (Staph. aureus SS 09): 0.05 µg/mL (≈ 0.0681 µM) | MIC (Pr. vulgaris SS 10): > 200 µg/mL | MIC (E. coli SS 04): 100 µg/mL (≈ 136 µM) | histological appearance of non obstructed bronchi [2]: practically normal appearance | histological appearance of obstructed bronchial tract [2]: an appearance like that of the control animals | MIC (Strept. faecalis SS 19): 0.05 µg/mL (≈ 0.0681 µM) | MIC (B. cereus ATCC 11778): 0.08 µg/mL (≈ 0.109 µM) | MIC (Br. abortus SS 7): 6 µg/mL (≈ 8.18 µM) | MIC (Ps. aeruginosa SS 10): 100 µg/mL (≈ 136 µM) | ED50 (reliability limits) (Staph. aureus SS 07 [3]; os): 2.14 (2.42-1.89) mg/kg | ED50 (reliability limits) (Staph. aureus SS 07 [3]; s.c.): 1.00 (1.36-0.73) mg/kg | MIC (Kl. aerogenes SS 71): 50 µg/mL (≈ 68.1 µM) | MIC (E. aerogenes SS 011): 50 µg/mL (≈ 68.1 µM) | MIC (H. pertussis SS 03): 0.4 µg/mL (≈ 0.545 µM) | MIC [4]: 1.5 µg/mL (≈ 2.04 µM) | MIC (Br. melitensis SS 19): 6 µg/mL (≈ 8.18 µM) | MIC (Staph. aureus SS 08): 0.025 µg/mL (≈ 0.0341 µM) | MIC (Pr. mirabilis SS 09): > 200 µg/mL | MIC (B. anthranis SS 09): 0.4 µg/mL (≈ 0.545 µM) | MIC (Staph. albus SS 04): 0.025 µg/mL (≈ 0.0341 µM) | MIC (Staph. albus SS 03): 0.05 µg/mL (≈ 0.0681 µM) | MIC (Kl. pneumoniae SS 04): 100 µg/mL (≈ 136 µM) | MIC (H. tubercolosis SS 03): 25 µg/mL (≈ 34.1 µM) | MIC (S. lutea ATCC 9341): 0.025 µg/mL (≈ 0.0341 µM) | MIC (Staph. aureus SS 07 [5]): 0.025 µg/mL (≈ 0.0341 µM) | MIC (Citrobacter SS 05): > 200 µg/mL | MIC (E. coli SS 07): 50 µg/mL (≈ 68.1 µM) | MIC (Citrobacter SS 09): > 200 µg/mL | MIC [6]: 1.5 µg/mL (≈ 2.04 µM) | MIC (C. diphtheriae SS 19): 0.025 µg/mL (≈ 0.0341 µM)
